According to US11890266B2 (University of Canberra, priority 2016, dated 2024):

Tests used:
[1] = test system: form-deprivation myopia (FDM) in chick eyes fitted with a translucent diffuser; assay: Form-deprivation myopia (FDM) induced by translucent diffuser, five day treatment; axial length and refraction; type: in vivo, White Cockerel chickens; conditions: Example 15, five days; for effect of intravitreal injection versus topical administration on refraction and axial elongation: daily administration; for axial elongation in comparison with animals fitted with a translucent diffuser only (G2) / myopic shift in refraction in comparison with animals fitted with a translucent diffuser only (G2): ADTN 1 mM, atropine 2 mM, pirenzepine 16 mM
Experimental: For the drug treatments, the compositions were administered under light isoflurane anesthesia using intravitreal injection or topical administration.
Intravitreal injection was performed as follows: Using a 30 gauge needle attached to a Hamilton syringe, 10 μL (0.01 mL) of the test composition was injected into the vitreous chamber of the eye once daily.
Topical administration was performed as follows: Two drops of 40 μL (two drops of 0.04 mL, or 0.08 mL total) of the test composition was applied to the corneal surface of the eye using an eye drop dispenser. Drops were applied to the chicks twice daily.
To determine changes in the rate of eye growth and the development of myopia, changes in axial length and refraction were assessed. Myopia is associated with excessive elongation of the eye in the axial direction relative to normal growth rates. Such excessive axial elongation leads to a relative myopic change in refraction. Axial length and refraction were measured using A-scan ultrasonography (Biometer AL-100; Tomey Corporation, Nagoya, Japan) and automated infrared photo-retinoscopy respectively. Statistical analysis of changes in both refraction and axial length between groups involved a one-way ANOVA test followed by a Student's T-test with Bonferroni correction. All data are presented as the mean±the […] of the mean (SEM). […]
70 male White Cockerel chickens were randomly assigned to one of 14 treatment groups as defined below (n=5 per group) and were treated for a five day period. G1-G14 represent the labelling system used in FIGS. 11 and 12.
ADTN compositions were prepared by dissolving ADTN in a solution containing 0.1% ascorbic acid in 1×PBS to a final concentration of 1 mM (0.03% w/v), and adjusting the pH to 7. Atropine and pirenzepine compositions were prepared by dissolving atropine (in the form of atropine sulfate salt monohydrate) or pirenzepine (in the form of pirenzepine dihydrochloride) in distilled water to a final concentration of 2 mM (0.14% w/v) and 16 mM (0.7% w/v), respectively, and adjusting the pH to 7.
Administration of test compositions and measurement of ocular parameters was performed in accordance with that described in Example 4.

[2] = test system: form-deprivation myopia (FDM) in chick eyes fitted with a translucent diffuser; assay: Safety and efficacy of topical levodopa in form-deprivation myopia over a four week period; type: in vivo, White Cockerel chickens; conditions: topical 0.3% w/v (15 mM) levodopa composition of Example 1, twice daily, four weeks
Experimental: Male White Cockerel chickens were kept under normal laboratory light (500 lux, fluorescent lights) on a 12:12 hour light:dark cycle with lights on at 9:30 am and off at 9:30 pm. In all chicks, left eyes were treated experimentally while right eyes remained untreated to serve as a contralateral control. Chicks were randomly assigned to one of four groups (n=6 for each group) and treated over the four week period under the following experimental conditions: • 1. […] Form-deprivation myopia (FDM): Chicks were fitted with a translucent diffuser over their left eye to induce FDM, receiving no further treatment • 3.
Administration of the test compositions was performed in accordance with that described in Example 4.
To determine changes in the rate of eye growth and the development of myopia, axial length and refraction were measured using A-scan ultrasonography (Biometer AL-100; Tomey Corporation, Nagoya, Japan) and automated infrared photo-retinoscopy, respectively. Ocular measurements (axial length and refraction) were made on day one (prior to the commencement of experimentation) and every seven days for four weeks.
A multivariate analysis of variance (MANOVA) with repeated measures design was used to compare the effect of the different treatment regimens over time.

[3] = daily topical administration, levodopa 0.03% w/v in combinations

Row | Compound | effect of intravitreal injection versus topical administration on refraction and axial elongation [1] | axial elongation in comparison with animals fitted with a translucent diffuser only (G2) ([1]; daily intravitreal injection) | myopic shift in refraction in comparison with animals fitted with a translucent diffuser only (G2) ([1]; daily intravitreal injection) | axial elongation in comparison with animals fitted with a translucent diffuser only (G2) [1, 3] | myopic shift in refraction in comparison with animals fitted with a translucent diffuser only (G2) [1, 3] | axial elongation in comparison to diffusers in the absence of levodopa treatment [2]
1 | NC1CCc2cc(O)c(O)cc2C1 (stereo not shown) [ADTN, 2-amino-6,7-dihydroxy-1,2,3,4-tetrahydronaphthalene] | intravitreal injection having a greater effect than topical administration | decreased axial elongation | significantly inhibited the myopic shift in refraction | decreased axial elongation | significantly inhibited the myopic shift in refraction | –
2 | CN1[C@@H]2CC[C@H]1C[C@@H](OC(=O)C(CO)c1ccccc1)C2 (stereo partly shown) [atropine] | intravitreal injection having a greater effect than topical administration | decreased axial elongation | significantly inhibited the myopic shift in refraction | decreased axial elongation | significantly inhibited the myopic shift in refraction | –
3 | N[C@@H](Cc1ccc(O)c(O)c1)C(=O)O [levodopa] | – | – | – | – | – | decreased axial elongation
4 | CN1CCN(CC(=O)N2c3ccccc3C(=O)Nc3cccnc32)CC1 [pirenzepine] | greater when intravitreally administered | decreased axial elongation | significantly inhibited myopic shifts in refractive development | decreased axial elongation | significantly inhibited myopic shifts in refractive development | –
